Legend:
[1] = UV-vis titration (ΔA550) with N-Cbz-glutamic acid in CHCl3; type: binding
Source text: Complexation of Receptor 1 with Dicarboxylic Acids. Receptor 1 is a bis(acylaminopyridine) receptor and as such was expected to form strong bidentate interactions with dicarboxylic acids in chloroform. This was indeed the case, as 1 was found by NMR to bind glutaric acid with an association constant of 3.6×10^4 M^-1. Large changes in proton chemical shifts of 1 indicate that the dicarboxylic acid is hydrogen bonded simultaneously to the two acylaminopyridines moieties. […] The contribution of the phenanthroline to binding is uncertain, but it appears to play only a minor role; no protons on the phenanthroline ring shifted more than 0.014 ppm during the course of the titration. […] The stoichiometry of the complexes was 2:1 as determined by the concentration of dicarboxylic acid at which saturation of the receptor was found and independently determined by a Job's plot. A Job's plot is used to measure stoichiometry based on continuous variations of constant concentrations. […] The binding data was analyzed by assuming that two independent and equal bidentate binding sites are interacting with the substrate. […]
In the binding mode proposed in FIG. 5, the structure of the 2:1 complex of glutaric acid with Cu(1)2^+ BF4^- is chiral, similar to a double helix. […] This complicates the analysis of binding because six possibly different binding constants need to be evaluated. […]

[2] = UV-vis titration (ΔA550) with 1,3-phenylenediacetic acid in CHCl3; type: binding
Source text: (§1) Complexation of Receptor 1 with Dicarboxylic Acids. Receptor 1 is a bis(acylaminopyridine) receptor and as such was expected to form strong bidentate interactions with dicarboxylic acids in chloroform. This was indeed the case, as 1 was found by NMR to bind glutaric acid with an association constant of 3.6×10^4 M^-1. Large changes in proton chemical shifts of 1 indicate that the dicarboxylic acid is hydrogen bonded simultaneously to the two acylaminopyridines moieties. […] The contribution of the phenanthroline to binding is uncertain, but it appears to play only a minor role; no protons on the phenanthroline ring shifted more than 0.014 ppm during the course of the titration. […] The stoichiometry of the complexes was 2:1 as determined by the concentration of dicarboxylic acid at which saturation of the receptor was found and independently determined by a Job's plot. A Job's plot is used to measure stoichiometry based on continuous variations of constant concentrations. Binding was most conveniently followed by UV-vis spectroscopy (ΔA550) and was checked against NMR results for pimelic acid and glutaric acid. The binding data was analyzed by assuming that two independent and equal bidentate binding sites are interacting with the substrate. In this way a single association constant is obtained that represents the strength of binding of one of the receptor binding sites with one substrate. […] An exception was N-Cbz-glutamic acid, which is understandable because there are several diastereotopic complexes present (vide infra), each with a different Ka.
(§2) Also reported in Table 2 are the λmax and the relative change in the absorptivity at 550 nm for each substrate/receptor combination. The changes in the absorption spectra are definitely substrate dependent. For example, complexation of pimelic acid results in a less pronounced increase in the shoulder near the red edge and a smaller blue shift in λmax (for Cu(1)2^+ BF4^-,λmax =445 nm) than complexation of the 5-carbon acids, glutaric and N-Cbz-glutamic. […]

[3] = UV-vis titration (ΔA550) with glutaric acid in CHCl3; type: binding
Protocol: FIG. 3 discloses the change in the visible absorption spectrum of Cu(1)2^+ BF4^- upon addition of glutaric acid in CHCl3 [Cu(1)2^+ BF4^- ]=0.106 mM, [glutaric acid]=0-0.5 mM.
FIG. 4 discloses the change in the visible absorption spectrum of [Cu(L)2^+ BF4^- ] upon addition of glutaric acid in CHCl3. [Cu(L)2^+ BF4^- ]=0-0.125 mM [glutaric acid]=0-0.40 mM.
as §1
(§3) From comparison of FIG. 3 with FIG. 4 which is a change in the visible absorption spectrum of Cu(L)2^+ BF4^- upon addition of glutaric acid, it is clear that the bis-dicarboxylic acid receptor, Cu(1)2^+ BF4^-, is more chromogenic than a mono-dicarboxylic acid receptor, Cu(L)2^+ BF4^-. [drawing 1] The relative change in A550 is 3-4 times greater for Cu(1)2^+ BF4^- than for Cu(L)2^+ BF4^-. A summary of the spectral changes that occur upon complex formation are present in Table 2 below. […]
The origin of the chromogenic effect is definitely a direct result of the bidentate binding of dicarboxylic acids to the receptors. Addition of large excesses of monocarboxylic acids (acetic or trifluoroacetic) to a CHCl3 solution of either Cu(I)-based receptor leads to only minor changes in the absorbance spectrum. […]

[4] = NMR titration with glutaric acid; type: binding
Source text: (§4) Complexation of Receptor 1 with Dicarboxylic Acids. Receptor 1 is a bis(acylaminopyridine) receptor and as such was expected to form strong bidentate interactions with dicarboxylic acids in chloroform. This was indeed the case, as 1 was found by NMR to bind glutaric acid with an association constant of 3.6×10^4 M^-1. Large changes in proton chemical shifts of 1 indicate that the dicarboxylic acid is hydrogen bonded simultaneously to the two acylaminopyridines moieties. […] The contribution of the phenanthroline to binding is uncertain, but it appears to play only a minor role; no protons on the phenanthroline ring shifted more than 0.014 ppm during the course of the titration. […] The stoichiometry of the complexes was 2:1 as determined by the concentration of dicarboxylic acid at which saturation of the receptor was found and independently determined by a Job's plot. A Job's plot is used to measure stoichiometry based on continuous variations of constant concentrations. Binding was most conveniently followed by UV-vis spectroscopy (ΔA550) and was checked against NMR results for pimelic acid and glutaric acid. The binding data was analyzed by assuming that two independent and equal bidentate binding sites are interacting with the substrate. In this way a single association constant is obtained that represents the strength of binding of one of the receptor binding sites with one substrate. […]

[5] = NMR titration with pimelic acid; type: binding
Source text: as §4

[6] = UV-vis titration (ΔA550) with pimelic acid in CHCl3; type: binding
Source text: as §1, §2

air stability = type: physicochemical; conditions: Cu(I) complex
[7] = complexation with dicarboxylic acids in CHCl3 (UV-vis, NMR, Job's plot); type: binding
Source text: as §1, §3

[8] = CHCl3, UV-vis ΔA550, per binding site

Binding Constant (Ka) UV-vis ([1]; CHCl3, UV-vis ΔA550, several diastereomeric complexes, all Ka assumed equal)	Binding Constant (Ka) UV-vis [2, 8]	Binding Constant (Ka) UV-vis ([3]; glutaric acid, CHCl3, UV-vis ΔA550, per binding site)	Binding Constant (Ka) NMR [4]	Binding Constant (Ka) NMR [5]	Binding Constant (Ka) UV-vis [6, 8]	air stability (air stability)	positive cooperativity in binding of second equivalent of dicarboxylic acid [7]	association constant ([4]; uncoordinated receptor, chloroform)	receptor strength for dicarboxylic acids ([7]; uncoordinated ligand)	Structure (SMILES)	% Increase ( = 550 nm) ([1]; absorptivity at 550 nm)	spectral change relative to the other dicarboxylic acids [2]	% Increase ( = 550 nm) ([2]; absorptivity at 550 nm)	relative change in A550, compared with Cu(L)2^+ BF4^- ([3]; glutaric acid, FIG. 3 vs FIG. 4)	% Increase ( = 550 nm) ([3]; glutaric acid, absorptivity at 550 nm)	color change upon complexation ([3]; two equivalents of glutaric acid)	spectral change relative to the other dicarboxylic acids [6]	% Increase ( = 550 nm) ([6]; absorptivity at 550 nm)	color change on binding ([7]; each dicarboxylic acid of Table 1)
40000 M⁻¹	35000 M⁻¹	78000 M⁻¹	71000 M⁻¹	40000 M⁻¹	17000 M⁻¹	air stable	not observed	–	–	Cc1cccc(NC(=O)c2ccc(-c3ccc4ccc5ccc(-c6ccc(C(=O)Nc7cccc(C)n7)cc6)nc5c4n3)cc2)n1.Cc1cccc(NC(=O)c2ccc(-c3ccc4ccc5ccc(-c6ccc(C(=O)Nc7cccc(C)n7)cc6)nc5c4n3)cc2)n1.F[B-](F)(F)F.[Cu+] [Cu(1)2^+ BF4^-]	105%	largest change	111%	3-4 times	101%	obvious color change from pale orange to bright red	smallest changes in the spectrum	62%	distinct color change from pale orange to bright red
–	–	–	–	–	–	–	–	36000 M⁻¹	good receptor for dicarboxylic acids	Cc1cccc(NC(=O)c2ccc(-c3ccc4ccc5ccc(-c6ccc(C(=O)Nc7cccc(C)n7)cc6)nc5c4n3)cc2)n1 [Receptor 1]	–	–	–	–	–	–	–	–	–
